Experiments:
[1] = tested on: Caco-2 cells; test: MTT cell viability assay in Caco-2 cells; assay type: cell-based, human; details: 24 h; for cell viability: 100 μM, compared to control (0 μM); for change in cell vitality: concentrations below 50 μM
Procedure: (§1) Cell culture: […] Subsequently, the supernatant was removed and 200 μL of MTT solution (0.1 mg/mL) was added to each well to incubate for an additional 4 h (200 μL for Caco-2 cells, 100 μL for HepG2 cells, both at a concentration of 0.1 mg/mL). Finally, formazan crystals were completely dissolved in DMSO in a shaker for 10 min and the absorbance was measured at a wavelength of 490 nm using a microplate absorbance reader (FLUOstar Omera, BMG Labtech, Germany). Cell viability was determined using the following equation: Cell viability (%) = (OD sample/OD control) × 100, where OD is the optical density. The absorbance values for drug fractions […], catechin, and […]-catechin) were compared to those of untreated culture (control). Each treatment was set up in triplicate.

[2] = tested on: HepG2 cells; test: MTT cell viability assay in HepG2 cells; assay type: cell-based, human; details: 24 h; for effect on cell viability: 50 μM; for cytotoxicity: 100 μM
Procedure: as §1

[3] = tested on: Caco-2 cell monolayers; test: Bidirectional transport across Caco-2 cell monolayer; assay type: in vitro ADME, human; details: for efflux rate (BL to AP side) / absorption rate (AP to BL side): 50 μM; for efflux rate (BL to AP side): up to 150 min; for absorption rate (AP to BL side): within 150 min; for ER (efflux rate) / Papp (AP → BL) / Papp (BL → AP): 50 μmol/L, no inhibitor; for transport mechanism into the small intestine: inferred from ER < 1 and inhibitor study
Procedure: The cells were seeded at a density of approximately 10^5 cells/cm^2 on TranswellTM filter (Corning Inc., Lowell, MA) and cultured for 21 d before use. Cell monolayer integrity was controlled by the measurement of trans-epithelial electrical resistance (TEER) with an EVOM epithelial voltammeter equipped with an electrode (World Precision Instruments, Sarasota, FL, United States). […] (a) R(%)=CBL×VBL/CAP×VAP×100 In this, R represents the absorption rate (as a percentage); CBL is the anthocyanin concentration of the BL side (in μM); VBL is the volume of anthocyanins from the BL (in L); CAP is the initial anthocyanin concentration of the AP side (in μM), and VAP is the volume of anthocyanins in the AP chamber (in L). The absorption rate of anthocyanins from BL to AP is calculated using the following Equation b: (b) R(%)=CAP×VAP/CBL×VBL×100 In this, R represents the absorption rate (as a percentage); CAP is the anthocyanin concentration from the AP side (in μM); VAP is the volume of anthocyanins in the AP chamber (in mL); CBL is the initial concentration from the BL side (in μM) and VBL is the volume of anthocyanins in the BL chamber (in L).

[4] = tested on: Caco-2/HepG2 co-culture model; test: Lipid metabolites and AST/ALT in OA-induced Caco-2/HepG2 co-culture model; assay type: cell-based, human; details: for reduction in TC content: HepG2 on BL side after transport by Caco-2, 50 μM
Procedure: Caco-2 and HepG2 cells were cultured separately at 37°C with 5% CO2 in DMEM medium containing 10% fetal bovine serum, 50 U/mL penicillin, and 50 μg/mL streptomycin. Caco-2 cells were cultured in 96-well plates for 24 h and harvested with trypsin–EDTA to seed to the AP side (1 × 10^5 cells/mL, 500 μL) in monolayers. 1,500 μL of Minimum Essential Medium (MEM) was simultaneously added to the BL compartment. HepG2 cells were seeded to the BL compartment at the day 15. The total culture period was 18 d.
The co-culture cells were collected by the previous method from the above mentioned, and the cells were lysed on ice for 30 min using IP cell lysis buffer (20 mM Tris pH 7.5, 200 mM NaCl, 10% glycerol, 0.2 mM DTT, 0.1 mM EDTA, 1 mM protease inhibitor). The contents of TG, T-CHO, LDL-C, HDL-C, AST, and ALT from HepG2 were measured following the test kit instructions. Intracellular protein content was measured to calibrate the levels of relevant metabolites using the BCA Protein Quantitation Kit (Beyotime Biotechnology).

[5] = tested on: Fabp4; test: Western blot of Fabp4 protein in Caco-2/HepG2 co-culture; assay type: cell-based, human; details: OA-induced co-culture, 50 μM, 24 h; compared vs. OA
Procedure: (§2) Cells from the co-culture model were lysed and supernatants were collected. The protein concentrations were determined using the BCA Protein Quantitation Kit. Then electrophoresis of samples was conducted using a SDS-PAGE kit (Beyotime Biotechnology) following the manufacturer’s instructions and transferred to poly-vinylidene difluoride (PVDF) membrane. Next, membranes were incubated in 5% nonfat milk to block non-specific antibody binding for 30 min at room temperature and followed by incubating with primary antibodies and secondary antibodies. Chemiluminescence based-images of the blots were acquired using ImageQuant LAS 500 system (GE, United States). Protein bands were quantified using ImageJ (version 1.53a) software. The changes in expression levels of these proteins detected finally are used to evaluate the sample’s effect on lipid metabolism.

[6] = tested on: Plin1; test: Western blot of Plin1 protein in Caco-2/HepG2 co-culture; assay type: cell-based, human; details: OA-induced co-culture, 50 μM, 24 h; compared vs. OA
Procedure: as §2

[7] = tested on: Pparγ; test: Western blot of PPARγ protein in Caco-2/HepG2 co-culture; assay type: cell-based, human; details: OA-induced co-culture, 50 μM, 24 h; compared vs. OA
Procedure: as §2

Row | SMILES | cell viability [1] [%] | change in cell vitality [1] | effect on cell viability [2] | cytotoxicity [2] | efflux rate (BL to AP side) [3] [%] | absorption rate (AP to BL side) [3] [%] | ER (efflux rate) ([3]; 30 min) | Papp (AP → BL) ([3]; 30 min) | Papp (BL → AP) ([3]; 30 min) | ER (efflux rate) ([3]; 60 min) | Papp (AP → BL) ([3]; 60 min) | Papp (BL → AP) ([3]; 60 min) | ER (efflux rate) ([3]; 90 min) | Papp (BL → AP) ([3]; 90 min) | ER (efflux rate) ([3]; 120 min) | Papp (AP → BL) ([3]; 120 min) | Papp (BL → AP) ([3]; 120 min) | ER (efflux rate) ([3]; 150 min) | Papp (AP → BL) ([3]; 150 min) | Papp (BL → AP) ([3]; 150 min) | further results
1 | OC[C@H]1O[C@@H](Oc2cc3c(O)cc(O)cc3[o+]c2-c2ccc(O)c(O)c2)[C@H](O)[C@@H](O)[C@@H]1O [C3G, Cyanidin-3-O-glucoside] | 80 | No significant changes | no significant effects | comparable cytotoxicity | 15.41 | 22.47 | 0.49 | 3.9 ± 1.32^Aa* ×10^−5 cm /s | 1.8 ± 0.14^Ba ×10^−5 cm /s | 0.56 | 1.8 ± 0.07^Cb* ×10^−5 cm /s | 1.0 ± 0.17^Bb ×10^−5 cm /s | 0.53 | 0.6 ± 0.04^Cc ×10^−5 cm /s | 0.57 | 0.9 ± 0.03^Cb* ×10^−5 cm /s | 0.5 ± 0.08^Ccd ×10^−5 cm /s | 0.54 | 0.7 ± 0.03^Bb* ×10^−5 cm /s | 0.4 ± 0.04^Cde ×10^−5 cm /s | Papp (AP → BL) ([3]; 90 min): 1.1 ± 0.02^Cb* ×10^−5 cm /s; transport mechanism into the small intestine [3]: passive diffusion; reduction of ALT level [4]: not observed; reduction of AST level [4]: not observed; reduction of OA-induced LDL-C increase ([4]; 50 μM): did not change; reduction in TC content [4]: 7.69%; Fabp4 protein expression level (densitometry) [5]: 1.23; Plin1 protein expression level (densitometry) [6]: 1.12; PPARγ protein expression level (densitometry) [7]: 1.03
2 | O.Oc1cc(O)c2c(c1)O[C@H](c1ccc(O)c(O)c1)[C@@H](O)C2 [catechin] | 80 | No significant changes | no significant effects | comparable cytotoxicity | 68.71 | 73.41 | 0.77 | 7.9 ± 0.26^Ba ×10^−5 cm /s | 6.1 ± 2.78^Aa ×10^−5 cm /s | 0.55 | 4.6 ± 0.43^Ab* ×10^−5 cm /s | 2.5 ± 0.28^Ab ×10^−5 cm /s | 0.52 | 1.6 ± 0.11^Ab ×10^−5 cm /s | 0.51 | 2.5 ± 0.19^Ad* ×10^−5 cm /s | 1.31 ± 0.13^Ab ×10^−5 cm /s | 0.48 | 2.2 ± 0.52^Ad* ×10^−5 cm /s | 1.0 ± 0.03^Ab ×10^−5 cm /s | transport mechanism into the small intestine [3]: passive diffusion; reduction of ALT level [4]: not observed; reduction of AST level [4]: not observed; reduction in TC content [4]: 7.69%; Fabp4 protein expression level (densitometry) [5]: 1.23; Plin1 protein expression level (densitometry) [6]: 1.14; PPARγ protein expression level (densitometry) [7]: 1.08

Source: paper PMC12402003 (Frontiers in Nutrition, 2025)
